Test results as given in patent US8426408B2, “Pyrimidine inhibitors of kinases” (AbbVie Inc., priority 2009, dated 2013).

Legend:
NCI-H1299 cells = assay: Induction of polyploidy in H1299; format: cell-based, Human; details: Homo sapiens; NCI-H1299, 48 hours; read-out: EC15 (concentration of inhibitor necessary to induce polyploidy in 15% of cells)
Summary of the method: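 NCI-H1299 cells in RPMI 1640/10% FCS were treated with inhibitor concentrations in duplicate for 48 h at 37 C, then formalin-fixed and Hoechst-stained. Nuclear area was measured by high-content imaging, with polyploid (≥4N) defined as >750 μ^2. EC15 was derived by least-squares fit of log dose-response.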

Aurora A = molecular target: T1, Aurora A (Homo sapiens, UniProt O14965); assay: Aurora A enzyme inhibition (time-resolved fluorescence, STK substrate-2); format: biochemical; details: 1 mM ATP
T1 sequence (O14965 1-403): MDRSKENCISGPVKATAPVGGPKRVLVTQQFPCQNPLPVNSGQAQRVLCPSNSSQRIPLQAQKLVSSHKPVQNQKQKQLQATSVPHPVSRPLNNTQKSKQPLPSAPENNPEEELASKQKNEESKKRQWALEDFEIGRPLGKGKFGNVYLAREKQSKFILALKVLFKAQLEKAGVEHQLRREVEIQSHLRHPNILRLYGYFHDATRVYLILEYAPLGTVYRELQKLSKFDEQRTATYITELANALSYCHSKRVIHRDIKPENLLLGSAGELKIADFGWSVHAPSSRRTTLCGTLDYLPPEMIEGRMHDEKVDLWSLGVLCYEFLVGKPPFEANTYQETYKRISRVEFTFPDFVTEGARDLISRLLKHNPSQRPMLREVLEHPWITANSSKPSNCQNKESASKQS
Summary of the method: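 Active enzyme incubated 1 h with biotinylated STK substrate-2, 1 mM ATP and inhibitor in Hepes pH 7.4 with MgCl2, orthovanadate and Triton X-100. EDTA stop; phosphopeptide detected by Eu-cryptate anti-phospho-STK/SA-XL665 TR-FRET (665/615 nm ratio); IC50 by exponential fit.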

SMILES	EC15 (NCI-H1299 cells) [nM]	Ki (Aurora A) [nM]
NC(=O)[C@@H]1[C@H](Nc2nc(Nc3cnn([C@H]4CCOC4)c3)ncc2Br)[C@H]2C=C[C@@H]1C2 [Example 117, (1S,2S,3R,4R)-3-{[5-bromo-2-({1-[(3S)-tetrahydrofuran-3-yl]-1H-pyrazol-4-yl}amino)pyrimidin-4-yl]amino}bicyclo[2.2.1]hept-5-ene-2-carboxamide]	< 100	< 100
Cc1nn(C)cc1Nc1ncc(Br)c(N[C@H]2[C@@H](C(N)=O)[C@@H]3C=C[C@H]2C3)n1 [Example 135, (1S,2S,3R,4R)-3-({5-bromo-2-[(1,3-dimethyl-1H-pyrazol-4-yl)amino]pyrimidin-4-yl}amino)bicyclo[2.2.1]hept-5-ene-2-carboxamide]	< 100	< 100
Cc1c(Nc2ncc(Cl)c(N[C@H]3[C@@H](C(N)=O)[C@@H]4C=C[C@H]3C4)n2)cnn1C [Example 169, (1S,2S,3R,4R)-3-({5-chloro-2-[(1,5-dimethyl-1H-pyrazol-4-yl)amino]pyrimidin-4-yl}amino)bicyclo[2.2.1]hept-5-ene-2-carboxamide]	< 100	< 100
COCCOCCn1cc(Nc2ncc(Cl)c(N[C@H]3[C@@H](C(N)=O)[C@@H]4C=C[C@H]3C4)n2)cn1 [Example 100, (1S,2S,3R,4R)-3-{[5-chloro-2-({1-[2-(2-methoxyethoxy)ethyl]-1H-pyrazol-4-yl}amino)pyrimidin-4-yl]amino}bicyclo[2.2.1]hept-5-ene-2-carboxamide]	< 100	< 100
C[C@@H](O)Cn1cc(Nc2ncc(Cl)c(N[C@@H]3[C@H]4CC[C@H](C4)[C@@H]3C(N)=O)n2)cn1 [Example 104, (1R,2S,3R,4S)-3-{[5-chloro-2-({1-[(2R)-2-hydroxypropyl]-1H-pyrazol-4-yl}amino)pyrimidin-4-yl]amino}bicyclo[2.2.1]heptane-2-carboxamide]	< 100	< 100
COCCn1cc(Nc2ncc(Br)c(N[C@H]3[C@@H](C(N)=O)[C@@H]4C=C[C@H]3C4)n2)cn1 [Example 106, (1S,2S,3R,4R)-3-[(5-bromo-2-{[1-(2-methoxyethyl)-1H-pyrazol-4-yl]amino}pyrimidin-4-yl)amino]bicyclo[2.2.1]hept-5-ene-2-carboxamide]	< 100	< 100
CN1CCN(CCn2cc(Nc3ncc(Cl)c(N[C@@H]4[C@H]5CC[C@H](C5)[C@@H]4C(N)=O)n3)cn2)CC1 [Example 90, (1R,2S,3R,4S)-3-{[5-chloro-2-({1-[2-(4-methylpiperazin-1-yl)ethyl]-1H-pyrazol-4-yl}amino)pyrimidin-4-yl]amino}bicyclo[2.2.1]heptane-2-carboxamide]	100 to 1000	< 100
NC(=O)[C@@H]1[C@H](Nc2nc(Nc3cnn(Cc4ccc(Cl)cc4)c3)ncc2Cl)[C@H]2C=C[C@@H]1C2 [Example 162, (1S,2S,3R,4R)-3-[(5-chloro-2-{[1-(4-chlorobenzyl)-1H-pyrazol-4-yl]amino}pyrimidin-4-yl)amino]bicyclo[2.2.1]hept-5-ene-2-carboxamide]	< 100	< 100
NC(=O)[C@@H]1[C@H](Nc2nc(Nc3cnn([C@@H]4CCOC4)c3)ncc2Cl)[C@H]2C=C[C@@H]1C2 [Example 107, (1S,2S,3R,4R)-3-{[5-chloro-2-({1-[(3R)-tetrahydrofuran-3-yl]-1H-pyrazol-4-yl}amino)pyrimidin-4-yl]amino}bicyclo[2.2.1]hept-5-ene-2-carboxamide]	< 100	< 100
CS(=O)(=O)CCn1cc(Nc2ncc(Br)c(N[C@H]3[C@@H](C(N)=O)[C@@H]4C=C[C@H]3C4)n2)cn1 [Example 122, (1S,2S,3R,4R)-3-{[5-bromo-2-({1-[2-(methylsulfonyl)ethyl]-1H-pyrazol-4-yl}amino)pyrimidin-4-yl]amino}bicyclo[2.2.1]hept-5-ene-2-carboxamide]	< 100	< 100
